Measured values reported in the NIST ThermoML archive (doi:10.1016/j.jct.2014.05.020).

Test: excess molar enthalpy (molar enthalpy of mixing); xn = mol fraction of the nth substance listed
Details: Liquid, Flow calorimetry

C1CCCCC1 [cyclohexane] + c1ccccc1
excess molar enthalpy [kcal/mol]
Details	298.2 K	348.2 K	423.2 K
100 kPa, x2 = 0.1191	0.0766	–	–
100 kPa, x2 = 0.2332	0.132	–	–
100 kPa, x2 = 0.2885	0.152	–	–
100 kPa, x2 = 0.3426	0.167	–	–
100 kPa, x2 = 0.3957	0.179	–	–
100 kPa, x2 = 0.4478	0.186	–	–
100 kPa, x2 = 0.4988	0.189	–	–
100 kPa, x2 = 0.5488	0.188	–	–
100 kPa, x2 = 0.5978	0.184	–	–
100 kPa, x2 = 0.6459	0.176	–	–
100 kPa, x2 = 0.6931	0.165	–	–
100 kPa, x2 = 0.7394	0.15	–	–
100 kPa, x2 = 0.7849	0.133	–	–
100 kPa, x2 = 0.8295	0.112	–	–
100 kPa, x2 = 0.9163	0.063	–	–
5000 kPa, x2 = 0.1189	0.076	0.0637	0.0511
5000 kPa, x2 = 0.1765	0.106	–	0.072
5000 kPa, x2 = 0.233	0.132	0.11	0.0886
5000 kPa, x2 = 0.2882	0.152	–	–
5000 kPa, x2 = 0.3424	0.167	0.141	0.113
5000 kPa, x2 = 0.3955	0.178	–	–
5000 kPa, x2 = 0.4475	0.184	0.156	0.126
5000 kPa, x2 = 0.4985	0.188	–	–
5000 kPa, x2 = 0.5485	0.187	0.159	0.128
5000 kPa, x2 = 0.5976	0.182	–	–
5000 kPa, x2 = 0.6457	0.174	0.148	0.12
5000 kPa, x2 = 0.6929	0.166	–	–
5000 kPa, x2 = 0.7392	0.151	0.126	0.103
5000 kPa, x2 = 0.7847	0.133	–	–
5000 kPa, x2 = 0.8293	0.113	0.0938	0.0766
5000 kPa, x2 = 0.8732	0.0885	–	0.0603
5000 kPa, x2 = 0.9162	0.0614	0.0514	0.0425
5000 kPa, x2 = 0.9585	–	0.0264	0.0221
15000 kPa, x2 = 0.1188	0.0714	0.0601	0.0502
15000 kPa, x2 = 0.1763	–	–	0.0712
15000 kPa, x2 = 0.2327	0.129	0.109	0.0873
15000 kPa, x2 = 0.2879	0.15	–	–
15000 kPa, x2 = 0.3421	0.166	0.14	0.111
15000 kPa, x2 = 0.3951	0.178	–	–
15000 kPa, x2 = 0.4471	0.185	0.156	0.124
15000 kPa, x2 = 0.4981	0.188	–	–
15000 kPa, x2 = 0.5482	0.188	0.158	0.125
15000 kPa, x2 = 0.5972	0.184	–	–
15000 kPa, x2 = 0.6454	0.175	0.148	0.117
15000 kPa, x2 = 0.6926	0.164	–	–
15000 kPa, x2 = 0.7389	0.149	0.127	0.1
15000 kPa, x2 = 0.7845	0.131	–	–
15000 kPa, x2 = 0.8291	0.11	0.0941	0.0743
15000 kPa, x2 = 0.873	–	–	0.0577
15000 kPa, x2 = 0.9161	0.0587	0.0511	0.0403
15000 kPa, x2 = 0.9584	–	0.0259	0.0203
25000 kPa, x2 = 0.1187	0.072	0.0642	0.0506
25000 kPa, x2 = 0.1762	–	0.0901	0.0707
25000 kPa, x2 = 0.2325	0.129	0.112	0.0873
25000 kPa, x2 = 0.3418	0.167	0.143	0.112
25000 kPa, x2 = 0.4469	0.185	0.158	0.124
25000 kPa, x2 = 0.5479	0.187	0.16	0.125
25000 kPa, x2 = 0.6451	0.175	0.149	0.117
25000 kPa, x2 = 0.7388	0.149	0.127	0.0996
25000 kPa, x2 = 0.7843	0.132	–	–
25000 kPa, x2 = 0.829	0.111	0.0933	–
25000 kPa, x2 = 0.8729	–	0.0728	–
25000 kPa, x2 = 0.916	0.0593	0.0502	–
25000 kPa, x2 = 0.9584	–	0.0242	–
